Values of other authors as cited in patent publication US20130220225A1, “BAITING METHOD AND COMPOSITION” (priority 2008, published 2013).
Read-outs that look alike come from different tables or passages of the source.

Assays:
[1] = system: Cat (Fellis libyca domestica); settings: Oral
Coyote (Canis latrans) = settings: Oral
Stoats (Mustela erminea) = settings: Oral
Bobcat (Lynx rufus) = settings: Oral
Fox (kit) (Vulpes velox) = settings: Oral
[2] = system: Ferret (Mustela putoris furo); settings: Oral
[3] = system: Mallard (duck) (Anas platyrhrynchos); settings: Oral
[4] = system: Eagle (Aquila chrysaetos); settings: Oral
[5] = system: Tammar wallaby (Macropus eugenii); settings: Oral
[6] = system: Badger (Nth Am.) (Taxidea taxus); settings: Oral
[7] = system: Blackbird (red-wing) (Agelaius phoenicus); settings: Oral
Raccoon (Procyon lotor) = settings: Oral
[8] = system: Rat (male) (Rattus norvegicus); settings: Oral
[9] = system: Magpie (black-billed) (Pica pica); settings: Oral
[10] = system: Crow (Corvus brachyrhynchos); settings: Oral
[11] = system: Starling (Sturnus vulgaris); settings: Oral
[12] = system: Quail (Coturnix coturnix); settings: Oral
[13] = system: Skunk (Mephitis mephitis); settings: Oral
[14] = system: Brushtail Possum (Trichosaurus vulpecula); settings: Oral
[15] = system: Guinea pig (female) (Cavellio porcinus); settings: Oral

CCC(=O)c1ccc(N)cc1 [p-aminopropiophenone]
LD50 [1]: 5.6 mg/kg | LD50 (Coyote (Canis latrans)): 5.6 mg/kg | LD50 (Stoats (Mustela erminea)): 9.3 mg/kg | LD50 (Bobcat (Lynx rufus)): 10 mg/kg | LD50 (Fox (kit) (Vulpes velox)): 14.1 mg/kg | LD50 [2]: 29 mg/kg | LD50 [3]: 38 mg/kg | LD50 [4]: >50 mg/kg | LD50 [5]: 89 mg/kg | LD50 [6]: 100 mg/kg | LD50 [7]: 133 mg/kg | LD50 (Raccoon (Procyon lotor)): 142 mg/kg | LD50 (Mouse (Mus domesticus); Mouse (female), I.V.): 200 mg/kg | LD50 (Mouse (Mus domesticus); Mouse (female), Oral): >5,000 mg kg^−1 | LD50 (Mouse (Mus domesticus); Mouse (male), I.V.): 145 mg/kg | LD50 (Mouse (Mus domesticus); Mouse (sex not given), Oral): 233 mg/kg | LD50 [8]: 177 mg/kg | LD50 [9]: 178 mg/kg | LD50 [10]: >178 mg/kg | LD50 [11]: >316 mg/kg | LD50 [12]: >316 mg/kg | LD50 [13]: >400 mg/kg | LD50 [14]: 500 mg/kg | LD50 [15]: 1020 mg/kg
